Data taken from PubChem BioAssay AID2060895 (Molecular Pharmacology Branch, DTP, NCI, 2025).

Test system: PDC 899932-113-R3-J6 complex spheroid viability
Assay: Anticancer human tumor 899932-113-R3-J6-PDC patient-derived melanoma cell line growth inhibition [RAS]
Details: for IC50: curve of first compound; for viability, T/C: stronger effect = lower value
How it was run: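 Agents were tested in combination matrices in half-log decrements from a top concentration at or near clinical Cmax (10 microM if undetermined). Targets were multi-cell spheroids of tumour lines plus HUVEC and MSC stromal cells.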

[1] = second compound 0.000949 µM, first compound 0.0316 µM
[2] = second compound 0.000949 µM, first compound 0.1 µM
[3] = second compound 0.000949 µM, first compound 0.316 µM
[4] = second compound 0.000949 µM, first compound 1 µM
[5] = second compound 0.000949 µM, first compound 3.16 µM
[6] = second compound 0.000949 µM, first compound 10 µM
[7] = second compound 0.003 µM, first compound 0.0316 µM
[8] = second compound 0.003 µM, first compound 0.1 µM
[9] = second compound 0.003 µM, first compound 0.316 µM
[10] = second compound 0.003 µM, first compound 1 µM
[11] = second compound 0.003 µM, first compound 3.16 µM
[12] = second compound 0.003 µM, first compound 10 µM
[13] = second compound 0.00949 µM, first compound 0.0316 µM
[14] = second compound 0.00949 µM, first compound 0.1 µM
[15] = second compound 0.00949 µM, first compound 0.316 µM
[16] = second compound 0.00949 µM, first compound 1 µM
[17] = second compound 0.00949 µM, first compound 3.16 µM
[18] = second compound 0.00949 µM, first compound 10 µM
[19] = second compound 0.03 µM, first compound 0.0316 µM
[20] = second compound 0.03 µM, first compound 0.1 µM
[21] = second compound 0.03 µM, first compound 0.316 µM
[22] = second compound 0.03 µM, first compound 1 µM
[23] = second compound 0.03 µM, first compound 3.16 µM
[24] = second compound 0.03 µM, first compound 10 µM
[25] = second compound 0.0949 µM, first compound 0.0316 µM
[26] = second compound 0.0949 µM, first compound 0.1 µM
[27] = second compound 0.0949 µM, first compound 0.316 µM
[28] = second compound 0.0949 µM, first compound 1 µM
[29] = second compound 0.0949 µM, first compound 3.16 µM
[30] = second compound 0.0949 µM, first compound 10 µM
[31] = second compound 0.3 µM, first compound 0.0316 µM
[32] = second compound 0.3 µM, first compound 0.1 µM
[33] = second compound 0.3 µM, first compound 0.316 µM
[34] = second compound 0.3 µM, first compound 1 µM
[35] = second compound 0.3 µM, first compound 3.16 µM
[36] = second compound 0.3 µM, first compound 10 µM
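Throughout, for viability, T/C: spheroids exposed to agents for seven days before readout; 100% = DMSO vehicle control wells.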

For `Cc1nc(N2CCC3(CC2)COC(C)C3N)c(CO)nc1Sc1ccnc(N)c1Cl` (stereo unspecified) + CCn1c(-c2cccnc2C(C)OC)c2c3cc(ccc31)N1CCOC(CC(NC(=O)C(C(C)C)N(C)C(=O)C3(F)CCN(C(=O)C#CC(C)(C)N(C)C)CC3)C(=O)N3CCCC(N3)C(=O)OCC(C)(C)C2)C1, the IC50 (second compound 0.000949 µM) was > 10 µM, the IC50 (second compound 0.003 µM) was > 10 µM and the IC50 (second compound 0.00949 µM) was > 10 µM. For the same compound, the IC50 (second compound 0.03 µM) was > 10 µM, the IC50 (second compound 0.0949 µM) was > 10 µM and the IC50 (second compound 0.3 µM) was > 10 µM. For the same compound, the viability, T/C [1] was 109%, the viability, T/C [2] was 102% and the viability, T/C [3] was 108%. For the same compound, the viability, T/C [4] was 113%, the viability, T/C [5] was 112% and the viability, T/C [6] was 118%. It also gave a viability, T/C [7] of 102%, a viability, T/C [8] of 96.8% and a viability, T/C [9] of 107%. For the same compound, the viability, T/C [10] was 116%, the viability, T/C [11] was 109% and the viability, T/C [12] was 110%. It also gave a viability, T/C [13] of 93.2%, a viability, T/C [14] of 95.5% and a viability, T/C [15] of 112%. It also gave a viability, T/C [16] of 121%, a viability, T/C [17] of 114% and a viability, T/C [18] of 110%. It also gave a viability, T/C [19] of 91.7%, a viability, T/C [20] of 89.3% and a viability, T/C [21] of 108%. For the same compound, the viability, T/C [22] was 110%, the viability, T/C [23] was 108% and the viability, T/C [24] was 106%. The viability, T/C [25] was 91.2%, the viability, T/C [26] was 85.8% and the viability, T/C [27] was 103%. The viability, T/C [28] was 94.2%, the viability, T/C [29] was 105% and the viability, T/C [30] was 107%. The viability, T/C [31] was 82.5%, the viability, T/C [32] was 80.9% and the viability, T/C [33] was 95.6%. For the same compound, the viability, T/C [34] was 81.6%, the viability, T/C [35] was 94.3% and the viability, T/C [36] was 90.7%.

With `NC1c2ccccc2OC12CCN(c1cnc3c(N4CCCc5ncccc54)n[nH]c3n1)CC2` (stereo unspecified) + CCn1c(-c2cccnc2C(C)OC)c2c3cc(ccc31)N1CCOC(CC(NC(=O)C(C(C)C)N(C)C(=O)C3(F)CCN(C(=O)C#CC(C)(C)N(C)C)CC3)C(=O)N3CCCC(N3)C(=O)OCC(C)(C)C2)C1 the IC50 (second compound 0.000949 µM) was > 10 µM, the IC50 (second compound 0.003 µM) was > 10 µM and the IC50 (second compound 0.00949 µM) was > 10 µM. For the same compound, the IC50 (second compound 0.03 µM) was > 10 µM, the IC50 (second compound 0.0949 µM) was > 10 µM and the IC50 (second compound 0.3 µM) was > 10 µM. The viability, T/C [1] was 113%, the viability, T/C [2] was 102% and the viability, T/C [3] was 112%. It also gave a viability, T/C [4] of 120%, a viability, T/C [5] of 114% and a viability, T/C [6] of 101%. For the same compound, the viability, T/C [7] was 113%, the viability, T/C [8] was 112% and the viability, T/C [9] was 111%. For the same compound, the viability, T/C [10] was 120%, the viability, T/C [11] was 111% and the viability, T/C [12] was 110%. For the same compound, the viability, T/C [13] was 112%, the viability, T/C [14] was 112% and the viability, T/C [15] was 110%. The viability, T/C [16] was 129%, the viability, T/C [17] was 120% and the viability, T/C [18] was 109%. It also gave a viability, T/C [19] of 112%, a viability, T/C [20] of 116% and a viability, T/C [21] of 105%. It also gave a viability, T/C [22] of 117%, a viability, T/C [23] of 112% and a viability, T/C [24] of 106%. The viability, T/C [25] was 100%, the viability, T/C [26] was 102% and the viability, T/C [27] was 94.4%. For the same compound, the viability, T/C [28] was 113%, the viability, T/C [29] was 108% and the viability, T/C [30] was 98.5%. It also gave a viability, T/C [31] of 97.7%, a viability, T/C [32] of 85.1% and a viability, T/C [33] of 95.7%. For the same compound, the viability, T/C [34] was 96.8%, the viability, T/C [35] was 92.6% and the viability, T/C [36] was 85.7%.

With `Nc1ccn(C2OC(CO)C(O)C2(F)F)c(=O)n1` (stereo unspecified) + CCn1c(-c2cccnc2C(C)OC)c2c3cc(ccc31)N1CCOC(CC(NC(=O)C(C(C)C)N(C)C(=O)C3(F)CCN(C(=O)C#CC(C)(C)N(C)C)CC3)C(=O)N3CCCC(N3)C(=O)OCC(C)(C)C2)C1 the IC50 (second compound 0.000949 µM) was 0.0198 µM, the IC50 (second compound 0.003 µM) was 0.0207 µM and the IC50 (second compound 0.00949 µM) was 0.0205 µM. The IC50 (second compound 0.03 µM) was 0.0196 µM, the IC50 (second compound 0.0949 µM) was 0.0209 µM and the IC50 (second compound 0.3 µM) was 0.0183 µM. It also gave a viability, T/C (second compound 0.000949 µM, first compound 0.00316 µM) of 103%, a viability, T/C (second compound 0.000949 µM, first compound 0.01 µM) of 71.2% and a viability, T/C [1] of 35.9%. It also gave a viability, T/C [2] of 20.9%, a viability, T/C [3] of 17.4% and a viability, T/C [4] of 19.2%. For the same compound, the viability, T/C (second compound 0.003 µM, first compound 0.00316 µM) was 99.8%, the viability, T/C (second compound 0.003 µM, first compound 0.01 µM) was 74.8% and the viability, T/C [7] was 36.3%. It also gave a viability, T/C [8] of 17.1%, a viability, T/C [9] of 15.1% and a viability, T/C [10] of 17.8%. For the same compound, the viability, T/C (second compound 0.00949 µM, first compound 0.00316 µM) was 103%, the viability, T/C (second compound 0.00949 µM, first compound 0.01 µM) was 73.7% and the viability, T/C [13] was 36.4%. It also gave a viability, T/C [14] of 19.8%, a viability, T/C [15] of 16.1% and a viability, T/C [16] of 20.6%. It also gave a viability, T/C (second compound 0.03 µM, first compound 0.00316 µM) of 101%, a viability, T/C (second compound 0.03 µM, first compound 0.01 µM) of 70.3% and a viability, T/C [19] of 36.4%. It also gave a viability, T/C [20] of 19.2%, a viability, T/C [21] of 19% and a viability, T/C [22] of 19.8%. The viability, T/C (second compound 0.0949 µM, first compound 0.00316 µM) was 95.2%, the viability, T/C (second compound 0.0949 µM, first compound 0.01 µM) was 73.4% and the viability, T/C [25] was 37.4%. It also gave a viability, T/C [26] of 20.5%, a viability, T/C [27] of 19.3% and a viability, T/C [28] of 20.1%. It also gave a viability, T/C (second compound 0.3 µM, first compound 0.00316 µM) of 84.4%, a viability, T/C (second compound 0.3 µM, first compound 0.01 µM) of 69.4% and a viability, T/C [31] of 32.7%. The viability, T/C [32] was 20.8%, the viability, T/C [33] was 21.6% and the viability, T/C [34] was 25.9%.
